The compounds below were run against recombinant CD73 (Homo sapiens (Human), UniProt P21589) (assay: Assay 2: Inhibition of the CD73 enzyme in vitro (0.05 nM CD73, 1 hour 37° C., Malachite Green)). Settings: 0.05 nM CD73, 50 μM AMP, 1 hour at 37° C.
Format: biochemical
In short: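 Soluble recombinant CD73 reactions ran 1 hour at 37° C. Malachite Green was then added, and absorbance at 630 nm was read after 5 min at room temperature. Inorganic phosphate was quantified from a phosphate standard curve.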

Sequence of recombinant CD73 (P21589 27-547): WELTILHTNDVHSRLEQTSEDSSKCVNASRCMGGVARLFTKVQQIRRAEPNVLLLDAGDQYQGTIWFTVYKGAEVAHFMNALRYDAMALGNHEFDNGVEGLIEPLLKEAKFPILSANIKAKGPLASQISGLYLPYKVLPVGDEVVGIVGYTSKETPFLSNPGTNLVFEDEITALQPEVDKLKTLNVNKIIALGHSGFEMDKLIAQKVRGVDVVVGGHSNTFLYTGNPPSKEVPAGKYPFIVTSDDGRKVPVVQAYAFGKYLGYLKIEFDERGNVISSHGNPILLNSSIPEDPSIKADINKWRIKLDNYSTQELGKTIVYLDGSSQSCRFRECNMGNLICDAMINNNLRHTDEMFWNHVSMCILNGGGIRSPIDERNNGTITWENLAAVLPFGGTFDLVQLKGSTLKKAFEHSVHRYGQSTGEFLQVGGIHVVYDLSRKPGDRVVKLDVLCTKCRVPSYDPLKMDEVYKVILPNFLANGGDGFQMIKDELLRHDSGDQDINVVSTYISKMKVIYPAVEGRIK

Point of comparison: `C#C[C@@]1(O)[C@@H](COC(Cc2ccc(N3CCCNC3=O)cc2)(C(=O)O)C(=O)O)O[C@@H](n2ccc(N)nc2=O)[C@@H]1O` [Example 135, 2-(((2R,3S,4R,5R)-5-(4-amino-2-oxopyrimidin-1(2H)-yl)-3-ethynyl-3,4-dihydroxytetrahydrofuran-2-yl)methoxy)-2-(4-(2-oxotetrahydropyrimidin-1 (2H)-yl)benzyl)malonic acid], IC50 91 nM. Against it:
- C#C[C@@]1(O)[C@@H](COC(Cc2ccc(N3CCN(C)CC3=O)cc2)(C(=O)O)C(=O)O)O[C@@H](n2cnc3c(N)nc(Cl)nc32)[C@@H]1O [Example 154, 2-(((2R,3S,4R,5R)-5-(6-amino-2-chloro-9H-purin-9-yl)-3-ethynyl-3,4-dihydroxytetrahydrofuran-2-yl)methoxy)-2-(4-(4-methyl-2-oxopiperazin-1-yl)benzyl)malonic acid] — 46-fold lower, 2 nM
- C#C[C@@]1(O)[C@@H](COC(Cc2nccs2)(C(=O)O)C(=O)O)O[C@@H](n2cnc3c(N)nc(Cl)nc32)[C@@H]1O [Example 142, 2-(((2R,3S,4R,5R)-5-(6-amino-2-chloro-9H-purin-9-yl)-3-ethynyl-3,4-dihydroxytetrahydrofuran-2-yl)methoxy)-2-(thiazol-2-ylmethyl)malonic acid] — 18-fold lower, 5 nM
- C#C[C@@]1(O)[C@@H](COC(Cc2ccccc2)(C(=O)O)C(=O)O)O[C@@H](n2cnc3c(N(C)C4CCC4)nc(Cl)nc32)[C@@H]1O [Example 81, 2-benzyl-2-(((2R,3S,4R,5R)-5-(2-chloro-6-(cyclobutyl(methyl)amino)-9H-purin-9-yl)-3-ethynyl-3,4-dihydroxytetrahydrofuran-2-yl)methoxy)malonic acid] — 230-fold lower, 0.4 nM
- C#C[C@@]1(O)[C@@H](COC(Cc2ccccc2)(C(=O)O)C(=O)O)O[C@@H](n2cnc3c(N)nc(C(N)=O)nc32)[C@@H]1O [Example 122, 2-(((2R,3S,4R,5R)-5-(6-amino-2-carbamoyl-9H-purin-9-yl)-3-ethynyl-3,4-dihydroxytetrahydrofuran-2-yl)methoxy)-2-benzylmalonic acid] — 2.3-fold lower, 40 nM
- C#C[C@@]1(O)[C@@H](COC(Cc2ccccc2)(C(=O)O)C(=O)O)O[C@@H](n2cnc3c(N4CCOCC4)nc(Cl)nc32)[C@@H]1O [Example 79, 2-benzyl-2-(((2R,3S,4R,5R)-5-(2-chloro-6-morpholino-9H-purin-9-yl)-3-ethynyl-3,4-dihydroxytetrahydrofuran-2-yl)methoxy)malonic acid] — 23-fold lower, 4 nM
- C#C[C@@]1(O)[C@@H](COC(Cc2ccccc2)(C(=O)O)C(=O)O)O[C@@H](n2cnc3ccc(Cl)nc32)[C@@H]1O [Example 58, 2-benzyl-2-(((2R,3S,4R,5R)-5-(5-chloro-3H-imidazo[4,5-b]pyridin-3-yl)-3-ethynyl-3,4-dihydroxytetrahydrofuran-2-yl)methoxy)malonic acid] — 57-fold lower, 1.6 nM
- C#C[C@@]1(O)[C@@H](COC(Cc2ccoc2)(C(=O)O)C(=O)O)O[C@@H](n2cnc3c(N)nc(Cl)nc32)[C@@H]1O [Compound 8, 2-(((2R,3S,4R,5R)-5-(6-amino-2-chloro-9H-purin-9-yl)-3-ethynyl-3,4-dihydroxytetrahydrofuran-2-yl)methoxy)-2-(furan-3-ylmethyl)malonic acid] — 46-fold lower, 2 nM
- C#C[C@@]1(O)[C@@H](COC(Cc2ccccc2)(C(=O)O)C(=O)O)O[C@@H](n2cnc3c(CCCC(=O)O)nc(Cl)nc32)[C@@H]1O [Example 163, 2-benzyl-2-(((2R,3S,4R,5R)-5-(6-(3-carboxypropyl)-2-chloro-9H-purin-9-yl)-3-ethynyl-3,4-dihydroxytetrahydrofuran-2-yl)methoxy)malonic acid] — higher, > 100 nM
- CC#C[C@@]1(O)[C@@H](COC(Cc2ccccc2)(C(=O)O)C(=O)O)O[C@@H](n2cnc3c(N)nc(Cl)nc32)[C@@H]1O [Compound 3, 2-(((2R,3S,4R,5R)-5-(6-amino-2-chloro-9H-purin-9-yl)-3,4-dihydroxy-3-(prop-1-yn-1-yl)tetrahydrofuran-2-yl)methoxy)-2-benzylmalonic acid] — 91-fold lower, 1 nM
- C#C[C@@]1(O)[C@@H](COC(Cc2ccccc2)(C(=O)O)C(=O)O)O[C@@H](n2cnc3c(NC4CCOC4)nc(Cl)nc32)[C@@H]1O (stereo partly drawn) [Example 64, 2-benzyl-2-(((2R,3S,4R,5R)-5-(2-chloro-6-((tetrahydrofuran-3-yl)-amino)-9H-purin-9-yl)-3-ethynyl-3,4-dihydroxytetrahydrofuran-2-yl)methoxy)-malonic acid] — 30-fold lower, 3 nM
- C#C[C@@]1(O)[C@@H](COC(Cc2ccccc2)(C(=O)O)C(=O)O)O[C@@H](n2cnc3c(NCCCO)nc(Cl)nc32)[C@@H]1O [Example 34, 2-benzyl-2-(((2R,3S,4R,5R)-5-(2-chloro-6-((3-hydroxypropyl)amino)-9H-purin-9-yl)-3-ethynyl-3,4-dihydroxytetrahydrofuran-2-yl)methoxy)malonic acid] — 46-fold lower, 2 nM
- C#C[C@@]1(O)[C@@H](COC(Cc2ccccc2)(C(=O)O)C(=O)O)O[C@@H](n2cnc3c(NCc4ccccc4Cl)nc(Cl)nc32)[C@@H]1O [Example 77, 2-benzyl-2-(((2R,3S,4R,5R)-5-(2-chloro-6-((2-chlorobenzyl)amino)-9H-purin-9-yl)-3-ethynyl-3,4-dihydroxytetrahydrofuran-2-yl)methoxy)malonic acid] — 46-fold lower, 2 nM
- C#C[C@@]1(O)[C@@H](COC(Cc2ccc(OC(F)(F)F)cc2)(C(=O)O)c2cscn2)O[C@@H](n2cnc3c(NC(C)C)nc(Cl)nc32)[C@@H]1O (stereo partly drawn) [Example 174, 2-(((2R,3S,4R,5R)-5-(2-chloro-6-(isopropylamino)-9H-purin-9-yl)-3-ethynyl-3,4-dihydroxytetrahydrofuran-2-yl)methoxy)-2-(thiazol-4-yl)-3-(4-(trifluoromethoxy)phenyl)propanoic acid] — 5.4-fold lower, 17 nM
- C#C[C@@]1(O)[C@@H](CO[C@@](Cc2ccccc2)(C(=O)O)c2cscn2)O[C@@H](n2cnc3c(NC(C)C)nc(Cl)nc32)[C@@H]1O (single isomer, unassigned) [Example 171] — within 1.5-fold, 96 nM
- C#C[C@@]1(O)[C@@H](COC(C(=O)O)S(=O)(=O)c2ccccc2)O[C@@H](n2cnc3c(N4CCOCC4)nc(Cl)nc32)[C@@H]1O (stereo partly drawn) [Example 119, 2-(((2R,3S,4R,5R)-5-(2-chloro-6-morpholino-9H-purin-9-yl)-3-ethynyl-3,4-dihydroxytetrahydrofuran-2-yl)methoxy)-2-(phenylsulfonyl)acetic acid] — 51-fold higher, 4610 nM
- C#C[C@@]1(O)[C@@H](COC(Cc2ccccc2)(C(=O)O)C(=O)O)O[C@@H](n2cnc3c(N4CC[C@H](CO)C4)nc(Cl)nc32)[C@@H]1O [Example 101, 2-benzyl-2-(((2R,3S,4R,5R)-5-(2-chloro-6-((S)-3-(hydroxymethyl)-pyrrolidin-1-yl)-9H-purin-9-yl)-3-ethynyl-3,4-dihydroxytetrahydrofuran-2-yl)methoxy)malonic acid] — 91-fold lower, 1 nM
- C#C[C@@]1(O)[C@@H](COC(Cc2ccccc2)(C(=O)O)C(=O)O)O[C@@H](n2cnc3c(NC4(CO)CC4)nc(Cl)nc32)[C@@H]1O [Example 43, 2-benzyl-2-(((2R,3S,4R,5R)-5-(2-chloro-6-((1-(hydroxymethyl)-cyclopropyl)amino)-9H-purin-9-yl)-3-ethynyl-3,4-dihydroxytetrahydrofuran-2-yl)methoxy)malonic acid] — 46-fold lower, 2 nM

From patent publication US11078228B2, “Ectonucleotidase inhibitors and methods of use thereof” (Calithera Biosciences, Inc., priority 2018, dated 2021)
